Laboratory results reported in publication PMC8351955, “Targeting Mycobacterium tuberculosis response to environmental cues for the development of effective antitubercular drugs” (PLoS Biology, 2021).
Read-outs that look alike come from different tables or passages of the source.

Key:
[1] = tested on: CDC1551(rv2390c′::GFP) reporter Mtb strain, response to high [Cl−]; test: microbe, parasite or virus in culture; assay type: cell-based, Mycobacterium tuberculosis; details: Mycobacterium tuberculosis, 144 h; for activity at 20 µM: read-out: rv2390c'::GFP validation assay NPA% at 20 µM compound
[2] = tested on: CDC1551(rv1405c′::GFP) reporter Mtb strain; test: microbe, parasite or virus in culture; assay type: cell-based, Mycobacterium tuberculosis; details: Mycobacterium tuberculosis; for activity at 10 µM: read-out: rv1405c'::GFP secondary assay NPA% at 10 µM compound; for activity at 20 µM: read-out: rv1405c'::GFP secondary assay NPA% at 20 µM compound
[3] = pH 6.4, […], DMSO positive control = 100%, read-out: Primary screen rv2390c'::GFP NPA%
[4] = 10 µM, pH 6.4, 250 mM NaCl, 6 days, read-out: rv2390c'::GFP validation assay NPA% at 10 µM compound

Structure (SMILES) | activity at 10 µM [1, 3] [%] | activity at 10 µM [1, 4] [%] | activity at 20 µM ([1]; pH 6.4, 250 mM NaCl, 6 days) [%] | activity at 10 µM [2] [%] | activity at 20 µM [2] [%]
CC(NC(=O)c1cc(Cl)ccc1NS(C)(=O)=O)c1ccc2c(c1)OCO2 (centres unmarked) [RU-0202213, CC(NC(=O)C1=C(NS(C)(=O)=O)C=CC(Cl)=C1)C1=CC2=C(OCO2)C=C1] | 195 | 152 ± 9.2 | 181 ± 5.7 | 89.3 ± 18.6 | 119 ± 13.2
CCOC(=O)N1C/C(=C/c2cccc(O)c2)C(=O)/C(=C/c2cccc(O)c2)C1 [RU-0202273, CCOC(=O)N1C\C(=C\C2=CC(O)=CC=C2)C(=O)\C(C1)=C\C1=CC(O)=CC=C1] | 154 | 113 ± 3.2 | 117 ± 11 | 84.5 ± 18.2 | 158 ± 19.3
COc1ccc2c(c1)OCC(C(=O)C(C#N)c1nc3ccccc3o1)C2 (centres unmarked) [RU-0202553, COC1=CC2=C(CC(CO2)C(=O)C(C#N)C2=NC3=C(O2)C=CC=C3)C=C1] | 189 | 131 ± 13.6 | 249 ± 22.5 | 136 ± 12.3 | 402 ± 46.5
CC(C)CCOc1ccc(C(=O)Nc2cc(Cl)ccc2C(N)=O)cc1 [RU-0202925, CC(C)CCOC1=CC=C(C=C1)C(=O)NC1=C(C=CC(Cl)=C1)C(N)=O] | 46.5 | 57.1 ± 7.4 | 60.8 ± 9.8 | 63.2 ± 8.6 | 61.8 ± 14.4
CCOC(=O)c1nnc(NC(=O)c2cc(Cl)cc(Cl)c2)s1 [RU-0203287, CCOC(=O)C1=NN=C(NC(=O)C2=CC(Cl)=CC(Cl)=C2)S1] | 174 | 118 ± 12.5 | 138 ± 17 | 99 ± 5.3 | 111 ± 11.8
CC(CCc1ccccc1)Nc1ncnc(-n2cccn2)c1N (centres unmarked) [RU-0203332, CC(CCC1=CC=CC=C1)NC1=C(N)C(=NC=N1)N1C=CC=N1] | 151 | 100 ± 2.9 | 135 ± 16.1 | 117 ± 5.3 | 182 ± 8.5
Cc1nc(NS(=O)(=O)c2ccc(F)c(F)c2)n(-c2ccc(C#N)cc2)n1 [RU-0203361, CC1=NN(C(NS(=O)(=O)C2=CC(F)=C(F)C=C2)=N1)C1=CC=C(C=C1)C#N] | 152 | 121 ± 1.5 | 160 ± 15.7 | 119 ± 11.5 | 169 ± 13.4
CC(OC(=O)CC(C)(C)C)c1nc2cc(Cl)ccc2n1C (centres unmarked) [RU-0203619, CC(OC(=O)CC(C)(C)C)C1=NC2=C(C=CC(Cl)=C2)N1C] | 153 | 95.6 ± 13.8 | 131 ± 11 | 75.6 ± 6.2 | 96.6 ± 5.5
COCCOc1ccc(NS(=O)(=O)c2cn(C)c(Cl)n2)cn1 [RU-0203727, COCCOC1=NC=C(NS(=O)(=O)C2=CN(C)C(Cl)=N2)C=C1] | 277 | 168 ± 16.8 | 309 ± 6.8 | 330 ± 19.1 | 996 ± 23.7
COc1ccc2c(CC(=O)Nc3nc(CN4CCCCC4)cs3)coc2c1 [RU-0204291, COC1=CC2=C(C=C1)C(CC(=O)NC1=NC(CN3CCCCC3)=CS1)=CO2] | 167 | 99.2 ± 12.7 | 142 ± 13 | 104 ± 2.6 | 135 ± 13.2
CC(=O)N1N=C(c2c(-c3ccccc3)c3ccc(C)cc3[nH]c2=O)CC1c1ccco1 (centres unmarked) [RU-0204568, CC(=O)N1N=C(CC1C1=CC=CO1)C1=C(C2=CC=CC=C2)C2=C(NC1=O)C=C(C)C=C2] | 162 | 125 ± 9.5 | 198 ± 21 | 102 ± 12.9 | 116 ± 27.3
CCc1nc(C(C#N)C(=O)/C=C/c2ccc(NC(C)=O)cc2)sc1C (centres unmarked) [RU-0204780, CCC1=C(C)SC(=N1)C(C#N)C(=O)\C=C\C1=CC=C(NC(C)=O)C=C1] | 158 | 112 ± 8.5 | 140 ± 12.3 | 127 ± 5.5 | 206 ± 16
Cc1sc(NS(=O)(=O)c2ccc(F)c(F)c2)c(C(N)=O)c1C [RU-0205217, CC1=C(C)C(C(N)=O)=C(NS(=O)(=O)C2=CC(F)=C(F)C=C2)S1] | 163 | 128 ± 4.7 | 217 ± 16.5 | 305 ± 31.1 | 741 ± 74
